This passage reports IC50 results from patent publication US12600728B2, “Interleukin-17 inhibitors” (priority 2020, dated 2026).

Assay [1] has as its target biotinylated human IL-17A / AF647-labeled human IL-17RA (Homo sapiens, UniProt Q16552). Kind of assay: Human IL-17A×IL-17RA TR-FRET assay. Format: binding. How it is done:
Human IL-17A×IL-17RA TR-FRET Assay
Each compound concentration is tested in duplicate.
The final total assay volume is 10 μL.
Each plate contains test compounds in columns 1-22 and controls in columns 23 and 24. The neutral control (NC) contains all the assay components, but DMSO instead of test compound. […] The fluorescence values for emission at 615 nm and 665 nm are loaded to the evaluation software Helios.
From the activity data at each compound concentration, the IC50 values are obtained using the 4-parameter logistic function (“Hill-slope model”) of Helios.
For orientation: In TR-FRET formats the signal depends on donor and acceptor labels being close together.

Assay [2] concerns the target recombinant human IL-17AA (Homo sapiens, UniProt Q16552). Kind of assay: IL-6 release from NHDF cells, IL-17AA plus TNF-α stimulation. Format: cell-based. As to conditions: 24 hours, IL-6 by ELISA. The protocol:
IL-6 Release from NHDF Cells (Normal Human Dermal Fibroblasts)
NHDF cells isolated from normal adult mesoderm, connective tissues were cultured in fibroblast growth medium containing 2% supplement. […] The cells were allowed to adhere overnight before they were incubated with the compound/cytokine cocktail.
Diluted compounds were pre-incubated with recombinant human IL-17AA or IL-17AF plus human TNF-α for 30 minutes at room temperature on a shaker. […] The cells were incubated with the compound/cytokines cocktail for 24 hours at 37° C. (5% CO2). […] The final DMSO or plasma concentrations were 0.1% or 20%, respectively. All compound incubations were done in duplicate. The supernatants were collected to quantify IL-6 by ELISA according to the manufacturers instructions. The optical density was measured at 450 nm by an EnVision Multilabel Plate Reader (Perkin Elmer). The IL-6 levels produced after TNF-α stimulation were subtracted from the IL-6 produced after IL-17/TNF-α co-stimulation. These IL-17-specific IL-6 concentrations were used for […] value calculation.

Where [3] appears, read: TR-FRET, biotinylated human IL-17A 5 nM, AF647-labeled human IL-17RA 30 nM, read-out: IL17AA FRET/ IL17Rawt IC50.
[4] abbreviates: NHDF cells, IL-17AA 30 pM plus TNF-α 6 pM, read-out: IL17AA + TNF IC50 IL-6.
Setting [5] is: TR-FRET, 5 nM IL-17A, 30 nM IL-17RA, read-out: IL17AA FRET/ IL17Rawt IC50.
Setting [6] is: NHDF cells, IL-17AA 30 pM + TNF-α 6 pM, read-out: IL17AA + TNF IC50 IL-6.

Read-outs that look alike come from different tables or passages of the source.

Sequence of recombinant human IL-17AA (Q16552 24-155): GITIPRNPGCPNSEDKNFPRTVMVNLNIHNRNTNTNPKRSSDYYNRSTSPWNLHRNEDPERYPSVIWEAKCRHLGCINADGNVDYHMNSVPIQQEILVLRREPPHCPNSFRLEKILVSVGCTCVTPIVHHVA
Sequence of biotinylated human IL-17A / AF647-labeled human IL-17RA (Q16552 24-155): as above

With `Cc1c(-c2ccc(NC(=O)[C@@H](NC(=O)c3ccnn3C)C3CCC(F)(F)CC3)cc2F)cc(Cl)c[n+]1[O-]` [Example 174, (S)-5-chloro-3-(4-(2-(4,4-difluorocyclohexyl)-2-(1-methyl-1H-pyrazole-5-carboxamido)acetamido)-2-fluorophenyl)-2-methylpyridine 1-oxide], the IC50 in assay [1] (IL17AA FRET/ IL17Rawt IC50, TR-FRET, 5 nM IL-17A, 30 nM IL-17RA) was 683 nM; in assay [2] (IL17AA + TNF IC50 IL-6, NHDF cells, IL-17AA 30 pM + TNF-α 6 pM), 286 nM.
With `Cc1cc[n+]([O-])c(C)c1-c1ccc(NC(=O)[C@@H](NC(=O)c2ccnn2C(C)C)[C@H]2CCCc3ccccc32)cc1` [Example 50, 3-(4-((S)-2-(1-isopropyl-1H-pyrazole-5-carboxamido)-2-((S)-1,2,3,4-tetrahydronaphthalen-1-yl)acetamido)phenyl)-2,4-dimethylpyridine 1-oxide], the IC50 in assay [1] (setting [3]) is 23 nM; in assay [2] (setting [4]) it was 1 nM.
Taken in the same sequence, the figures for `Cc1c[n+]([O-])cc(C)c1-c1ccc(NC(=O)[C@@H](NC(=O)c2ccc3n2CCN(C)C3)C2CCCCCC2)cc1` [Example 117, (S)-4-(4-(2-cycloheptyl-2-(2-methyl-1,2,3,4-tetrahydropyrrolo[1,2-a]pyrazine-6-carboxamido)acetamido)phenyl)-3,5-dimethylpyridine 1-oxide] were 161 nM and 121 nM.
In the case of `Cc1cc[n+]([O-])c(C)c1-c1ccc(NC(=O)[C@@H](NC(=O)c2ccc3n2CCN(C)C3)C(C)c2ccccc2Cl)cc1` (stereo partly drawn) [Example 213, 3-(4-((2S)-3-(2-chlorophenyl)-2-(2-methyl-1,2,3,4-tetrahydropyrrolo[1,2-a]pyrazine-6-carboxamido)butanamido)phenyl)-2,4-dimethylpyridine 1-oxide], the IC50 was 533 nM in assay [1] (setting [5]) and 2580 nM in assay [2] (setting [6]).
Regarding `Cc1cc(-c2ccc(NC(=O)[C@@H](NC(=O)c3ccnn3C)C3CCCCC3)cc2)c(C)[n+]([O-])c1` [Example 113, (S)-3-(4-(2-cyclohexyl-2-(1-methyl-1H-pyrazole-5-carboxamido)acetamido)phenyl)-2,5-dimethylpyridine 1-oxide], the IC50 in assay [1] (setting [3]) was found to be 339 nM; in assay [2] (setting [4]), 38 nM.
Turning to `Cc1c(-c2ccc(NC(=O)C(NC(=O)c3ccnn3C)C3CCCC(F)C3)cc2)c(Cl)cc[n+]1[O-]` (stereo not drawn) [Example 182, 4-chloro-3-(4-(2-(3-fluorocyclohexyl)-2-(1-methyl-1H-pyrazole-5-carboxamido)acetamido)phenyl)-2-methylpyridine 1-oxide], the IC50 in assay [1] (setting [5]) turned out to be 61.2 nM; in assay [2] (setting [6]), 44.5 nM.
The matching figures for `Cc1cc[n+]([O-])c(C)c1-c1ccc(NC(=O)C(NC(=O)c2conc2C)C(C)c2ccccc2Cl)cc1` (stereo not drawn) [Example 221, 3-(4-(3-(2-chlorophenyl)-2-(3-methylisoxazole-4-carboxamido)butanamido)phenyl)-2,4-dimethylpyridine 1-oxide]: 71.9 nM and 264 nM.
With `Cc1c(-c2ccc(NC(=O)[C@@H](NC(=O)c3ccnn3C)C3CCCCC3)cc2F)c(C(F)(F)F)cc[n+]1[O-]` [Example 66, 3-(4-((S)-2-cyclohexyl-2-(1-methyl-1H-pyrazole-5-carboxamido)acetamido)-2-fluorophenyl)-2-methyl-4-(trifluoromethyl)pyridine 1-oxide], the IC50 was found to be 18 nM in assay [1] (setting [3]) and 4 nM in assay [2] (setting [4]).
The matching figures for `Cc1cc[n+]([O-])c(C)c1-c1ccc(NC(=O)[C@H](Cc2ccccc2Cl)NC(=O)c2conc2C)cc1` [Example 38, (S)-3-(4-(3-(2-chlorophenyl)-2-(3-methylisoxazole-4-carboxamido)propanamido)phenyl)-2,4-dimethylpyridine 1-oxide]: 17 nM and 131 nM.
For `Cc1c(-c2ccc(NC(=O)[C@@H](NC(=O)c3ccnn3C)C3CCCCC3)cc2)c(C(F)(F)F)cc[n+]1[O-]` [Example 67, (S)-3-(4-(2-cyclohexyl-2-(1-methyl-1H-pyrazole-5-carboxamido)acetamido)phenyl)-2-methyl-4-(trifluoromethyl)pyridine 1-oxide], the IC50 came out at 124 nM in assay [1] (setting [3]) and 15 nM in assay [2] (setting [4]).
For `Cc1cc[n+]([O-])c(C)c1-c1ccc(NC(=O)[C@@H](NC(=O)c2cnn(C)c2C)C2CCCCC2)cc1` [Example 167, (S)-3-(4-(2-cyclohexyl-2-(1,5-dimethyl-1H-pyrazole-4-carboxamido)acetamido)phenyl)-2,4-dimethylpyridine 1-oxide], the IC50 in assay [1] (setting [5]) was found to be 155 nM; in assay [2] (setting [6]), 210 nM.
Consider `Cc1c[n+]([O-])cc(C)c1-c1ccc(NC(=O)[C@@H](NC(=O)c2ccnn2C)[C@H]2CCc3ccccc3C2)cc1` [Example 103, 3,5-dimethyl-4-(4-((S)-2-(1-methyl-1H-pyrazole-5-carboxamido)-2-((S)-1,2,3,4-tetrahydronaphthalen-2-yl)acetamido)phenyl)pyridine 1-oxide], for which the IC50 in assay [1] (setting [3]) stood at 72 nM; in assay [2] (setting [4]) it was 45 nM.
The matching figures for `Cc1c(-c2ccc(NC(=O)[C@@H](NC(=O)c3ccnn3C)C3CCCCCC3)cc2)c(Cl)cc[n+]1[O-]` [Example 47, (S)-4-chloro-3-(4-(2-cycloheptyl-2-(1-methyl-1H-pyrazole-5-carboxamido)acetamido)phenyl)-2-methylpyridine 1-oxide]: 17 nM and 7 nM.
Taken in the same sequence, the figures for `Cc1nocc1C(=O)NC(C(=O)Nc1ccc(-c2c(Cl)cc[n+]([O-])c2C)cc1)C1CC2CC2C1` (stereo not drawn) [Example 71, 3-(4-(2-(bicyclo[3.1.0]hexan-3-yl)-2-(3-methylisoxazole-4-carboxamido)acetamido)phenyl)-4-chloro-2-methylpyridine 1-oxide] were 86 nM and 35 nM.
The matching figures for `Cc1c(-c2ccc(NC(=O)[C@@H](NC(=O)c3ccnn3C)C3CCCCC3)nc2)c(Cl)cc[n+]1[O-]` [Example 60, (S)-4-chloro-6′-(2-cyclohexyl-2-(1-methyl-1H-pyrazole-5-carboxamido)acetamido)-2-methyl-[3,3′-bipyridine] 1-oxide]: 123 nM and 236 nM.
For the molecule `Cc1cc[n+]([O-])c(C)c1-c1ccc(NC(=O)[C@@H](NC(=O)c2ccc3n2CCN(C)C3)C2CCCCC2)cc1` [Example 127, (S)-3-(4-(2-cyclohexyl-2-(2-methyl-1,2,3,4-tetrahydropyrrolo[1,2-a]pyrazine-6-carboxamido)acetamido)phenyl)-2,4-dimethylpyridine 1-oxide], the IC50 was 236 nM in assay [1] (setting [3]) and 12 nM in assay [2] (setting [4]).
As to `CC(=O)N1CCn2c(ccc2C(=O)N[C@H](C(=O)Nc2ccc(-c3c(C(F)(F)F)cc[n+]([O-])c3C)cc2)C2CCCCC2)C1` [Example 191, (S)-3-(4-(2-(2-acetyl-1,2,3,4-tetrahydropyrrolo[1,2-a]pyrazine-6-carboxamido)-2-cyclohexylacetamido)phenyl)-2-methyl-4-(trifluoromethyl)pyridine 1-oxide], the values for the IC50 in assay [1] (setting [5]) and in assay [2] (setting [6]) were 128 nM and 18.5 nM, respectively.
As for `CCn1nccc1C(=O)NC(C(=O)Nc1ccc(-c2c(C(F)(F)F)cc[n+]([O-])c2C)cc1)C1CC2CC2C1` (single isomer, unassigned) [Example 64], the IC50 in assay [1] (IL17AA FRET/ IL17Rawt IC50, TR-FRET, biotinylated human IL-17A 5 nM, AF647-labeled human IL-17RA 30 nM) is 74 nM; in assay [2] (IL17AA + TNF IC50 IL-6, NHDF cells, IL-17AA 30 pM plus TNF-α 6 pM), 25 nM.
On to `Cn1nccc1C(=O)N[C@H](C(=O)Nc1ccc(-c2c[n+]([O-])ccc2Cl)cc1)C1CCCCC1` [Example 112, (S)-4-chloro-3-(4-(2-cyclohexyl-2-(1-methyl-1H-pyrazole-5-carboxamido)acetamido)phenyl)pyridine 1-oxide], for which the IC50 amounted to 1040 nM in assay [1] (setting [3]) and 162 nM in assay [2] (setting [4]).
Taken in the same sequence, the figures for `Cc1nocc1C(=O)N[C@H](C(=O)Nc1ccc(-c2c(C(F)(F)F)cc[n+]([O-])c2C)cc1)C1CCCC1` [Example 22, (S)-3-(4-(2-cyclopentyl-2-(3-methylisoxazole-4-carboxamido)acetamido)phenyl)-2-methyl-4-(trifluoromethyl)pyridine 1-oxide] were 59 nM and 66 nM.
The matching figures for `Cc1cc[n+]([O-])c(C)c1-c1ccc(NC(=O)C(NC(=O)c2conc2C)C2CCC(C(F)(F)F)CC2)cc1` [Example 23, 2,4-dimethyl-3-(4-((S)-2-(3-methylisoxazole-4-carboxamido)-2-((1r,4S)-4-(trifluoromethyl)cyclohexyl)acetamido)phenyl)pyridine 1-oxide]: 60 nM and 6 nM.
